Laboratory results reported in ChEMBL document CHEMBL4765253, “Discovery, synthesis, and optimization of an N-alkoxy indolylacetamide against HIV-1 carrying NNRTI-resistant mutations from the Isatis indigotica root” (Eur J Med Chem, 2020).

What was measured:
HEK-293T [1] = test: Cytotoxicity against human HEK 293T cells assessed as reduction in cell viability measured after 48 hrs by Celltiter-glo assay; format: cell-based
[2] = system: Human immunodeficiency virus 1; test: Antiviral activity against VSVG/wild-type HIV-1 infected in human HEK 293T cells assessed as viral infection at 10 uM preincubated with cells for 15 mins prior to viral infection and measured at 48 hrs post-infection by luciferase reporter gene assay; format: functional, HEK293T; conditions: time 2895 min, 48.25 h
[3] = system: Human immunodeficiency virus 1; test: Antiviral activity against VSVG/wild-type HIV-1 infected in human HEK 293T cells assessed as inhibition of virus replication preincubated with cells for 15 mins prior to viral infection and measured at 48 hrs post-infection by luciferase reporter gene assay; format: functional, organism-based, HEK293T; conditions: Human immunodeficiency virus 1, HEK-293T
HEK-293T [4] = test: Cytotoxicity against human HEK 293T cells assessed as cell viability at 30 uM measured after 48 hrs by Celltiter-glo assay; format: cell-based
[5] = Selectivity index, ratio of CC50 for human HEK 293T cells to EC50 for VSVG/wild type HIV1 infected in human HEK 293T cells; format: toxicity, cell-based; conditions: read-out: Ratio CC50/EC50

SMILES | CC50 (HEK-293T [1]) | Activity [2] | EC50 [3] | Activity (HEK-293T [4]) | selectivity ratio [5]
CCCCCCCCCOn1cc(CC(=O)Nc2ccccc2Cl)c2ccccc21 | 28.9 µM | 58.3% | > 10 µM | – | –
COn1cc(CC(=O)Nc2ccccc2Br)c2ccccc21 | > 30 µM | – | 3.2 µM | 83.48% | > 9.38
COc1ccccc1NC(=O)Cc1cn(OC)c2ccccc12 | > 30 µM | 71.46% | > 10 µM | 59.57% | –
CCCOn1cc(CC(=O)Nc2ccccc2C(=O)OC)c2ccccc21 | > 30 µM | – | 6.7 µM | 55.39% | > 4.48
CCCOn1cc(CC(=O)Nc2ccccc2C(F)(F)F)c2ccccc21 | 24.9 µM | – | 4.28 µM | – | 5.81
CCOC(=O)c1ccccc1NC(=O)Cc1cn(OC)c2ccccc12 | 29.1 µM | 60.76% | > 10 µM | – | –
COC(=O)c1cccc(NC(=O)Cc2cn(OC)c3ccccc23)c1 | > 30 µM | 109.33% | > 10 µM | 50.46% | –
CCCCCOn1cc(CC(=O)Nc2ccncc2Cl)c2ccccc21 | 22 µM | – | 0.13 µM | – | 169
COn1cc(CC(=O)Nc2ccc(C)cc2)c2ccccc21 | > 30 µM | 124.35% | > 10 µM | 52.47% | –
COC(=O)c1ccccc1NC(=O)CC1CNc2ccccc21 (stereo unspecified) | > 30 µM | 82.96% | > 10 µM | 71.46% | –
COC(=O)c1ccc(NC(=O)Cc2cn(OC)c3ccccc23)cc1 | > 30 µM | 104.33% | > 10 µM | 72.64% | –
COn1cc(CC(=O)Nc2ccc([N+](=O)[O-])cc2)c2ccccc21 | > 30 µM | 81.41% | > 10 µM | 54% | –
COn1cc(CC(=O)Nc2ccncc2Cl)c2ccccc21 | 20 µM | – | 0.53 µM | – | 37.7
COc1cc(NC(=O)Cc2cn(OC)c3ccccc23)cc(OC)c1 | 21.6 µM | 98.07% | > 10 µM | – | –
COc1ccc(NC(=O)Cc2cn(OC)c3ccccc23)cc1 | > 30 µM | 128.61% | > 10 µM | 86.09% | –
CCCOn1cc(Cc2c(Cl)cncc2Cl)c2ccccc21 | > 30 µM | 93.41% | > 10 µM | 77.47% | –
CCCOn1cc(CC(=O)Nc2ccncc2F)c2ccccc21 | 14.1 µM | – | 0.33 µM | – | 42.8
COn1cc(CC(=O)Nc2cccnc2)c2ccccc21 | > 30 µM | 118.26% | > 10 µM | 78.7% | –
CCCCCOn1cc(CC(=O)Nc2ccccc2Cl)c2ccccc21 | 18.7 µM | – | 0.63 µM | – | 29.7
CCCCOn1cc(CC(=O)Nc2ccccc2Cl)c2ccccc21 | 29.1 µM | – | 0.64 µM | – | 45.5
O=C(Cc1cn(OC(=O)c2ccccc2)c2ccccc12)Nc1ccccc1Cl | 29.4 µM | 113.06% | > 10 µM | – | –
COn1cc(CC(=O)Nc2ccccn2)c2ccccc21 | > 30 µM | 138.11% | > 10 µM | 63.67% | –
COn1cc(CC(=O)Nc2ccccc2)c2ccccc21 | 28 µM | 113.22% | > 10 µM | – | –
COn1cc(CC(=O)Nc2ccccc2C)c2ccccc21 | > 30 µM | 53.31% | > 10 µM | 62.74% | –
CCCCCCCOn1cc(CC(=O)Nc2ccccc2Cl)c2ccccc21 | 23.9 µM | – | 1.95 µM | – | 12.2

SMILES | CC50 (HEK-293T [1]) | Activity [2] | EC50 [3] | Activity (HEK-293T [4]) | selectivity ratio [5]
COC(=O)c1ccccc1NC(=O)Cc1c[nH]c2ccccc12 | > 30 µM | 91.98% | > 10 µM | 65.5% | –
CCc1ccccc1NC(=O)Cc1cn(OC)c2ccccc12 | > 30 µM | 64.33% | > 10 µM | 68.5% | –
COc1cccc(NC(=O)Cc2cn(OC)c3ccccc23)c1 | > 30 µM | 104.29% | > 10 µM | 86.68% | –
O=C(Cc1cn(OCc2ccccc2)c2ccccc12)Nc1ccccc1Cl | 16.5 µM | – | 8.55 µM | – | 1.93
CCOn1cc(CC(=O)Nc2ccccc2Cl)c2ccccc21 | 20.8 µM | – | 0.86 µM | – | 24.2
COn1cc(CC(=O)Nc2ccc(C)c(C)c2)c2ccccc21 | > 30 µM | 95.02% | > 10 µM | 51.62% | –
COn1cc(CC(=O)Nc2ccncc2)c2ccccc21 | 14.3 µM | – | 4.95 µM | – | 2.88
COC(=O)c1ccccc1NC(=O)Cc1cn(O)c2ccccc12 | 24.6 µM | 107.1% | > 10 µM | – | –
COn1cc(CC(=O)Nc2cc(C)cc(C)c2)c2ccccc21 | > 30 µM | 87.28% | > 10 µM | 62.62% | –
COC(=O)c1ccccc1NC(=O)CCc1cn(OC)c2ccccc12 | 26.8 µM | 74.25% | > 10 µM | – | –
COn1cc(CC(=O)Nc2cccc(Cl)c2)c2ccccc21 | > 30 µM | 113% | > 10 µM | 61.02% | –
CC(=O)On1cc(CC(=O)Nc2ccccc2Cl)c2ccccc21 | 28.1 µM | 146.89% | > 10 µM | – | –
CCCOn1cc(CC(=O)Nc2ccncn2)c2ccccc21 | 17.9 µM | – | 3.3 µM | – | 5.43
COn1cc(CC(=O)Nc2ccccc2Cl)c2ccccc21 | 27.8 µM | – | 3.3 µM | – | 8.42
CCCOn1cc(Cc2ccncc2Cl)c2ccccc21 | > 30 µM | 65.67% | > 10 µM | 67.37% | –
COc1ccc(COn2cc(CC(=O)Nc3ccccc3Cl)c3ccccc32)cc1 | 20.3 µM | 73.2% | > 10 µM | – | –
CCCOn1cc(Cc2ccncc2)c2ccccc21 | > 30 µM | 99.48% | > 10 µM | 69.96% | –
COc1cc(NC(=O)Cc2cn(OC)c3ccccc23)cc(OC)c1OC | 13.9 µM | 47.94% | > 10 µM | – | –
COn1cc(CC(=O)Nc2ccncc2Br)c2ccccc21 | 18.6 µM | – | 0.66 µM | – | 28.1
COn1cc(CC(=O)Nc2ccccc2F)c2ccccc21 | 28.6 µM | 72.89% | > 10 µM | – | –
CCCCCCCCCCOn1cc(CC(=O)Nc2ccccc2Cl)c2ccccc21 | > 30 µM | 97.73% | > 10 µM | 52.8% | –
COC(=O)c1ccccc1NC(=O)CCCc1cn(OC)c2ccccc12 | > 30 µM | 82.07% | > 10 µM | 61.31% | –
COn1cc(CC(=O)Nc2ccc(Cl)cc2)c2ccccc21 | > 30 µM | 103.55% | > 10 µM | 51.01% | –
CCCCCCCCOn1cc(CC(=O)Nc2ccccc2Cl)c2ccccc21 | 22.9 µM | – | 4.4 µM | – | 5.21
